Assay results published in patent US20190269705A1, “METHODS AND MATERIALS FOR TREATING GRAFT VERSUS HOST DISEASE” (Regents of the University of Minnesota, priority 2017, published 2019).
“Also recorded” adds a separate entry of the source.

Tests used:
[1] = test system: Th1 cells; assay: ATAC-Seq chromatin accessibility, Th1; format: cell-based, mouse; settings: Th1, 500 nM CB839, day 5
Experimental: ATAC-Seq: Crude nuclei pellets were isolated as described elsewhere (see, e.g., Buenrostro et al., 2013 Nat Meth. 10(12):1213-1218) with modifications. Briefly, naïve CD4 T cells were skewed to Th1 and Th17 subsets in vitro with vehicle or in the presence of 500 nM CB839. At Day 5, T cells were re-isolated for CD4+ cells using Miltenyi CD4+ negative selection kit (Cat #: 130-104-454). 1×10^5 cells were removed for nuclei extraction in ATAC-Seq lysing buffer. Cells were exposed to Tn5+ adaptor proteins from Nextera DNA for 30 min at 37° C. and immediately placed on ice. Transposed eluate was amplified via PCR using Nextera DNA preparation kit (Illumina, Cat #: FC-121-1030), NEBNext High-fidelity 2× PCR mix (New England Labs, Cat #: M0541), and multiplexed (Illumina, Cat #: FC-121-1011). Samples were purified using Zymo DNA cleanup kit (Cat #: D4011). QC of samples was run on bioanalyzer before being sent for sequencing. RNA-Seq: Th1 and Th17 cells skewed with or without CB839 were isolated as previously described and total RNA extracted (Qiagen RNEasy Mini kit, Cat #: 74104). RNA was sent to VANTAGE core at Vanderbilt University and sequenced on HiSeq 2500. n=3 for each sample was analyzed. Samples were analyzed using the R program DESeq2. GSEA was performed using MSigDB. […]

[2] = test system: Eμ B ALL cells; assay: In vitro CAR T cell co-culture with target Eμ B ALL cells; format: cell-based, mouse; settings: CAR-T cells treated with CB839 before co-culture
From the text: T cells were isolated from wild type C57BL6 spleens using the Pan T Cell isolation kit (Cat #: 130-095-130) and were activated on anti-CD3 anti-CD28 coated plates with IL2 for four days with or without CB839. On days 1 and 2, T cells were transduced with retrovirus produced by Plat-E cells carrying the CAR construct targeting CD19 with GFP reporter. On day 4, CAR T cells were washed three times to remove any drug remnants and plated to equal concentrations on a 96 well plate at 5×10^5 cells per well and serial dilutions thereof. 5×10^5 Emu cells, a CD19+ B cell acute lymphoblastic leukemia cell line
(Generously provided by Dr. Davila Lab) were then added to every well to assay cell numbers. CD19+ and GFP+events were stained and counted by flow for each well after 72 hours.

[3] = test system: CD4 T cells (Th0 conditions); assay: CD4 T cells activated and cultured in IL2 (Th0 conditions), flow cytometry
[4] = test system: Th1 cells; assay: RNA-Seq and gene set enrichment analysis, Th1; format: cell-based, mouse
Experimental: ATAC-Seq: Crude nuclei pellets were isolated as described elsewhere (see, e.g., Buenrostro et al., 2013 Nat Meth. 10(12):1213-1218) with modifications. Briefly, naïve CD4 T cells were skewed to Th1 and Th17 subsets in vitro with vehicle or in the presence of 500 nM CB839. At Day 5, T cells were re-isolated for CD4+ cells using Miltenyi CD4+ negative selection kit (Cat #: 130-104-454). 1×10^5 cells were removed for nuclei extraction in ATAC-Seq lysing buffer. Cells were exposed to Tn5+ adaptor proteins from Nextera DNA for 30 min at 37° C. and immediately placed on ice. Transposed eluate was amplified via PCR using Nextera DNA preparation kit (Illumina, Cat #: FC-121-1030), NEBNext High-fidelity 2× PCR mix (New England Labs, Cat #: M0541), and multiplexed (Illumina, Cat #: FC-121-1011). Samples were purified using Zymo DNA cleanup kit (Cat #: D4011). QC of samples was run on bioanalyzer before being sent for sequencing. RNA-Seq: Th1 and Th17 cells skewed with or without CB839 were isolated as previously described and total RNA extracted (Qiagen RNEasy Mini kit, Cat #: 74104). RNA was sent to VANTAGE core at Vanderbilt University and sequenced on HiSeq 2500. n=3 for each sample was analyzed. Samples were analyzed using the R program DESeq2. GSEA was performed using MSigDB.
Th1 and Th17 cells were skewed with or without CB839 over 5 days and total RNA extracted for RNAseq (Cat #: 74104). RNA was sent to VANderbilt Technologies for Advanced GEnomics (VANTAGE) core at Vanderbilt University. Libraries were prepared using 50 ng of total RNA using the NEBNext Ultra RNA Library Kit for Illumina (Cat #E7530) and sequenced on HiSeq3000 at 75 bp paired-end. Each sample was analyzed in triplicate. Sequencing reads were aligned against the Mouse GENCODE genome, Version M14 (Jan. 2017 freeze, GRCm38, Ensembl 89) using the Spliced Transcripts Alignment to a Reference (STAR) software (ref: 26187010 and 23104886). Reads were preprocessed and index using SAMtools (ref: 19505943). Mapped reads were assigned to gene features and quantified using featureCounts (ref: 24227677). Normalization and differential expression was performed using DESeq2 (Love et al., 2014). Skewed lymphocytes with and without CB839 were compared in both Th1 and Th17 groups. […] The top 200 most differentially expressed genes were used for unsupervised hierarchical cluster analysis and visualized using heatmap representations.

[5] = activated CD4 T cells, IL2, day 5
[6] = Th1 Cells: Decreased Pathways, HALLMARK_ALLOGRAFT_REJECTION
[7] = Th1 Cells: Decreased Pathways, HALLMARK_ANGIOGENESIS
[8] = Th1 Cells: Decreased Pathways, HALLMARK_APICAL_JUNCTION
[9] = Th1 Cells: Decreased Pathways, HALLMARK_APOPTOSIS
[10] = Th1 Cells: Decreased Pathways, HALLMARK_COMPLEMENT
[11] = Th1 Cells: Decreased Pathways, HALLMARK_EPITHELIAL_MESENCHYMAL_TRANSITION
[12] = Th1 Cells: Decreased Pathways, HALLMARK_ESTROGEN_RESPONSE_EARLY
[13] = Th1 Cells: Decreased Pathways, HALLMARK_INFLAMMATORY_RESPONSE
[14] = Th1 Cells: Decreased Pathways, HALLMARK_INTERFERON_GAMMA_RESPONSE
[15] = Th1 Cells: Decreased Pathways, HALLMARK_KRAS_SIGNALING_UP
[16] = Th1 Cells: Decreased Pathways, HALLMARK_UV_RESPONSE_DN
[17] = Th1 Cells: Increased Pathways, HALLMARK_DNA_REPAIR
[18] = Th1 Cells: Increased Pathways, HALLMARK_E2F_TARGETS
[19] = Th1 Cells: Increased Pathways, HALLMARK_ESTROGEN_RESPONSE_LATE
[20] = Th1 Cells: Increased Pathways, HALLMARK_G2M_CHECKPOINT
[21] = Th1 Cells: Increased Pathways, HALLMARK_GLYCOLYSIS
[22] = Th1 Cells: Increased Pathways, HALLMARK_IL2_STAT5_SIGNALING
[23] = Th1 Cells: Increased Pathways, HALLMARK_MITOTIC_SPINDLE
[24] = Th1 Cells: Increased Pathways, HALLMARK_MTORC1_SIGNALING
[25] = Th1 Cells: Increased Pathways, HALLMARK_MYC_TARGETS_V1
[26] = Th1 Cells: Increased Pathways, HALLMARK_P53_PATHWAY

`O=C(Cc1cccc(OC(F)(F)F)c1)Nc1ccc(CCCCc2nnc(NC(=O)Cc3ccccn3)s2)nn1` [CB839] was tested. Which “genes with regions of altered chromatin accessibility” value [1] did it give?
Its value is “more genes with regions of increased accessibility than genes with decreased accessibility”.

And the “elimination of B cell leukemia cells in vitro” value [2]?
The value was “greater ability to eliminate B cell leukemia cells in vitro”.

What about the Foxp3 expression ([3]; CD4+ T cells stimulated in the presence of IL-2 and CB839) of the same compound?
The Foxp3 expression was “unchanged”.

What about the phospho-S6 ([3]; Th0 cells in the presence of IL2) of the same compound?
The phospho-S6 was “enhanced phospho-S6”.

And the IFNγ expression [3, 5]?
Its IFNγ expression is “greater expression of IFNγ”.

What about the Tbet expression [3, 5] of the same compound?
The Tbet expression was “greater expression”.

And the “Pik3ip1 expression by RNA-Seq” value ([4]; Th1)?
The value was “most strongly downregulated”.

What about the “compensation by GLS2 at the RNA level” value ([4]; Th1, CB839-treated) of the same compound?
The value was “No compensation by GLS2 at the RNA level”.

And the “direction of the 200 genes with the most altered expression” value ([4]; Th1, CB839 vs vehicle)?
The value was “the majority showed increased expression”.

What about the “gene set enrichment: cell cycle, mTORC1, Myc, IL2 signaling pathways” value ([4]; Th1, CB839 vs vehicle) of the same compound?
Its value is “upregulation of cell cycle, mTORC1, Myc, IL2 signaling, and glycolysis pathways; also recorded: upregulation of specific pathways including those related to cell cycle, mTORC1, Myc, and IL2 signaling”.

What about the “# Genes in Overlap (k)” value [4, 6] of the same compound?
Its value is 17.

And the k/K [4, 6]?
Its k/K is 0.085.

And the “# Genes in Overlap (k)” value [4, 7]?
The value was 6.

What about the k/K [4, 7] of the same compound?
The k/K was 0.1667.

And the “# Genes in Overlap (k)” value [4, 8]?
The value was 16.

And the k/K [4, 8]?
The k/K was 0.08.

What about the “# Genes in Overlap (k)” value [4, 9] of the same compound?
Its value is 13.

And the k/K [4, 9]?
Its k/K is 0.0807.

What about the “# Genes in Overlap (k)” value [4, 10] of the same compound?
Its value is 18.

And the k/K [4, 10]?
Its k/K is 0.09.

What about the “# Genes in Overlap (k)” value [4, 11] of the same compound?
The value was 13.

And the k/K [4, 11]?
Its k/K is 0.065.

What about the “# Genes in Overlap (k)” value [4, 12] of the same compound?
Its value is 13.

What about the k/K [4, 12] of the same compound?
Its k/K is 0.065.

What about the “# Genes in Overlap (k)” value [4, 13] of the same compound?
Its value is 18.

And the k/K [4, 13]?
Its k/K is 0.09.

What about the “# Genes in Overlap (k)” value [4, 14] of the same compound?
The value was 14.

What about the k/K [4, 14] of the same compound?
The k/K was 0.07.

And the “# Genes in Overlap (k)” value [4, 15]?
The value was 20.

What about the k/K [4, 15] of the same compound?
The k/K was 0.1.

And the “# Genes in Overlap (k)” value [4, 16]?
The value was 11.

And the k/K [4, 16]?
The k/K was 0.0764.

And the “# Genes in Overlap (k)” value [4, 17]?
The value was 28.

And the k/K [4, 17]?
Its k/K is 0.1867.

And the “# Genes in Overlap (k)” value [4, 18]?
Its value is 135.

And the k/K [4, 18]?
Its k/K is 0.675.

And the “# Genes in Overlap (k)” value [4, 19]?
Its value is 30.

And the k/K [4, 19]?
Its k/K is 0.15.

What about the “# Genes in Overlap (k)” value [4, 20] of the same compound?
Its value is 101.

And the k/K [4, 20]?
The k/K was 0.505.

What about the “# Genes in Overlap (k)” value [4, 21] of the same compound?
The value was 34.

What about the k/K [4, 21] of the same compound?
Its k/K is 0.17.

What about the “# Genes in Overlap (k)” value [4, 22] of the same compound?
Its value is 37.

What about the k/K [4, 22] of the same compound?
The k/K was 0.185.

And the “# Genes in Overlap (k)” value [4, 23]?
The value was 56.

What about the k/K [4, 23] of the same compound?
The k/K was 0.28.

And the “# Genes in Overlap (k)” value [4, 24]?
The value was 47.

What about the k/K [4, 24] of the same compound?
Its k/K is 0.235.

What about the “# Genes in Overlap (k)” value [4, 25] of the same compound?
Its value is 43.

What about the k/K [4, 25] of the same compound?
The k/K was 0.215.

And the “# Genes in Overlap (k)” value [4, 26]?
The value was 30.

And the k/K [4, 26]?
The k/K was 0.15.
